A short description of data set [1]: Lipophilicity, log D of the compound. Conditions: octanol/water. It counts as physicochemical.
The test system of data set [2] is Zone of skin. The data set can be described thus: Permeability in human skin after 48 hrs by Franz cell permeability assay.

The structures appear in SMILES notation.

What is called logD is the decadic logarithm of the distribution of all forms, ionised or not, between an organic phase and buffer at a given pH. Regarding `C[C@H](c1ccccc1)N(C)c1cc(C(F)(F)F)c(C#N)cn1`, in data set [1], the logD was found to be 5.59.

As to `N#Cc1ccc(-c2ccccc2O)cc1C(F)(F)F`, the logD in data set [1] worked out at 3.63.

In the case of `Cc1nn(-c2ccccc2)c(C)c1/C=N/N1CCN(Cc2ccccc2)CC1`, the logD in data set [1] was 3.65.

In the case of `Oc1cccc2ncccc12`, in data set [1], the logD was determined as 1.46.

In the case of `CC(=O)Nc1cnc(-c2ccccc2)o1`, the logD in data set [1] stood at 1.22.

`Cc1cc(=O)n(-c2ccccc2)n1C` [ANTIPYRINE] had a logD in data set [1] of 0.27.

As to `NC(=O)N1c2ccccc2C=Cc2ccccc21` [CARBAMAZEPINE], the “log Pe” value in data set [2] was found to be 0.18. Also, in data set [1], the log distribution coefficient (logD) was determined as 2.67.

`NS(=O)(=O)c1cc2c(cc1Cl)N=CNS2(=O)=O` [CHLOROTHIAZIDE] showed a logD in data set [1] of -0.78.

Consider `CN(C)CCCN1c2ccccc2Sc2ccc(Cl)cc21` [CHLORPROMAZINE], for which, in data set [1], the logD turned out to be 2.15.

In the case of `Cl.Clc1cccc(Cl)c1NC1=NCCN1` [CLONIDINE HYDROCHLORIDE], the “log Pe” value in data set [2] was -0.68. Further, in data set [1], the logD amounted to 0.37.

As to `C[C@]12C[C@H](O)[C@H]3[C@@H](CCC4=CC(=O)CC[C@@]43C)[C@@H]1CC[C@@H]2C(=O)CO` [CORTICOSTERONE], in data set [1], the logD was determined as 1.76.

For `C[C@@H]1C[C@H]2[C@@H]3CCC4=CC(=O)C=C[C@]4(C)[C@@]3(F)[C@@H](O)C[C@]2(C)[C@H]1C(=O)CO` [DESOXIMETASONE], the logD in data set [1] came to 2.

In data set [1], `C[C@@H]1C[C@H]2[C@@H]3CCC4=CC(=O)C=C[C@]4(C)[C@@]3(F)[C@@H](O)C[C@]2(C)[C@@]1(O)C(=O)CO` [DEXAMETHASONE] returned a log distribution coefficient (logD) of 1.87.

Consider `CCOC(=O)[C@H](CCc1ccccc1)N[C@@H](C)C(=O)N1CCC[C@H]1C(=O)O.O=C(O)/C=C\C(=O)O` [ENALAPRIL MALEATE], for which the “log Pe” value in data set [2] is on record as -1.72. The logD in data set [1] is -0.55.

As to `CCCn1c(=O)[nH]c(=O)c2[nH]cnc21` [ENPROFYLLINE], the logD in data set [1] turned out to be 0.27.

As for `NS(=O)(=O)c1cc2c(cc1Cl)NCNS2(=O)=O` [HYDROCHLOROTHIAZIDE], the “log Pe” value in data set [2] was -2.

Regarding `C[C@]12CCC(=O)C=C1CC[C@@H]1[C@@H]2[C@@H](O)C[C@@]2(C)[C@H]1CC[C@]2(O)C(=O)CO` [HYDROCORTISONE], the logD in data set [1] was 1.43.

On to `COc1ccc2c(c1)c(CC(=O)O)c(C)n2C(=O)c1ccc(Cl)cc1` [INDOMETHACIN], for which the logD in data set [1] is 0.59.

For `CC(C)Cn1c(=O)n(C)c(=O)c2[nH]cnc21` [ISOBUTYLMETHYLXANTHINE], the logD in data set [1] was determined as 2.

Regarding `CC(C(=O)O)c1cccc(C(=O)c2ccccc2)c1` (centres undefined) [KETOPROFEN], the log distribution coefficient (logD) in data set [1] turned out to be 0.56.

`COCCc1ccc(OCC(O)CNC(C)C)cc1` (centres undefined) [METOPROLOL]: the logD in data set [1] was -0.81.

In turn, `Clc1ccc(COC(Cn2ccnc2)c2ccc(Cl)cc2Cl)c(Cl)c1` (centres undefined) [MICONAZOLE] displayed a logD in data set [1] of 5.55.

`Nc1cc(N2CCCCC2)nc(N)[n+]1[O-]` [MINOXIDIL] had a log distribution coefficient (logD) in data set [1] of -3.99.

Molecule `O=C(O)c1cccnc1Nc1cccc(C(F)(F)F)c1` [NIFLUMIC ACID] came in with a pH-dependent lipophilicity (logD) in data set [1] of 2.01.

The molecule `COc1ccc2[nH]c([S+]([O-])Cc3ncc(C)c(OC)c3C)nc2c1` (centres undefined) [OMEPRAZOLE] had a logD in data set [1] of 2.16.

As to `CN1C(C(=O)Nc2ccccn2)=C(O)c2ccccc2S1(=O)=O` [PIROXICAM], the logD in data set [1] was -0.35.

In the case of `CC(=O)[C@H]1CC[C@H]2[C@@H]3CCC4=CC(=O)CC[C@]4(C)[C@H]3CC[C@]12C` [PROGESTERONE], the “log Pe” value in data set [2] was found to be 1.08.

`CC1(C)C(=O)N(c2ccc(C#N)c(C(F)(F)F)c2)C(=O)N1CCCCO` [RU-58841]: the logD in data set [1] came to 2.41.

As to `Nc1ccc(S(=O)(=O)Nc2ccccn2)cc1` [SULFAPYRIDINE], in data set [1], the logD was determined as 0.03.

Regarding `O=C(O)c1cc(/N=N/c2ccc(S(=O)(=O)Nc3ccccn3)cc2)ccc1O` [SULFASALAZINE], the “log Pe” value in data set [2] is listed as -1.31. Moreover, the log distribution coefficient (logD) in data set [1] was found to be 0.05.

Consider `CCN1CCCC1CNC(=O)c1cc(S(N)(=O)=O)ccc1OC` (centres undefined) [SULPIRIDE], for which the “log Pe” value in data set [2] is listed as -1.48.

As for `CC(C)(C)NCC(O)c1cc(O)cc(O)c1` (centres undefined) [TERBUTALINE], the logD in data set [1] is -2.14.

`CC(C)(C)c1ccc(C(O)CCCN2CCC(C(O)(c3ccccc3)c3ccccc3)CC2)cc1` (centres undefined) [TERFENADINE] returned a logD in data set [1] of 3.72.

`C[C@]12CC[C@H]3[C@@H](CCC4=CC(=O)CC[C@@]43C)[C@@H]1CC[C@@H]2O` [TESTOSTERONE]: the logD in data set [1] was 3.48.

In data set [1], `CC(=O)CC(c1ccccc1)c1c(O)c2ccccc2oc1=O` (centres undefined) [WARFARIN] registered a log distribution coefficient (logD) of 1.43.

The values above are taken from ChEMBL document CHEMBL1153196, “Development of an in silico model for human skin permeation based on a Franz cell skin permeability assay” (Bioorg Med Chem Lett, 2010).
